From US20090069336A1, “PYRIMIDOTHIOPHENE COMPOUNDS” (VERNALIS (CAMBRIDGE) LIMITED., priority 2004, published 2009)

These molecules were tested against T1, human full-length HSP90 (Homo sapiens, UniProt P08238) (assay: Fluorescence polarization assay (competitive displacement of probe RBT0051001-FAM from HSP90)). Details: Table 1; read-out: Hsp90 FP IC50.
T1 construct: E. coli expressed human full-length HSP90 protein, purified >95%; made in house; host or cells: E. coli
Type: binding
Excerpt: Fluorescence Polarization Assay
Fluorescence polarization {also known as fluorescence anisotropy} measures the rotation of a fluorescing species in solution, where the larger molecule the more polarized the fluorescence emission. When the fluorophore is excited with polarized light, the emitted light is also polarized. The molecular size is proportional to the polarization of the fluorescence emission.
The fluoroscein-labelled probe —RBT0051001-FAM—
binds to HSP90 {full-length human, full-length yeast or N-terminal domain HSP90} and the anisotropy {rotation of the probe:protein complex} is measured.
Test compound is added to the assay plate, left to equilibrate and the anisotropy measured again. Any change in anisotropy is due to competitive binding of compound to HSP90, thereby releasing probe.
Chemicals are of the highest purity commercially available and all aqueous solutions are made up in AR water. • 1) Costar 96-well black assay plate #3915 • 2) Assay buffer of (a) 100 mM Tris pH7.4; (b) 20 mM KCl; (c) 6 mM MgCl2. Stored at room temperature. • 3) BSA (bovine serum albumen) 10 mg/ml (New England Biolabs # B9001S) • 4) 20 mM probe in 100% DMSO stock concentration. Stored in the dark at RT. Working concentration is 200 nM diluted in AR water and stored at 4° C. Final concentration in assay 80 nM. • 5) E. coli expressed human full-length HSP90 protein, purified >95% (see, e.g., Panaretou et al., 1998) and stored in 50 μL aliquots at −80° C.
• 1) Add 100 μl 1× buffer to wells 11A and 12A (=FP BLNK) • 2) Prepare assay mix—all reagents are kept on ice with a lid on the bucket as the probe is light-sensitive.
• 3) Aliquot 100 μl assay mix to all other wells • 4) Seal plate and leave in dark at room temp for 20 minutes to equilibrate Compound Dilution Plate—1×3 dilution series • 1) In a clear 96-well v-bottom plate-{# VWR 007/008/257} add 10 μl 100% DMSO to wells B1 to H11 • 2) To wells A1 to A11 add 17.5 μl 100% DMSO • 3) Add 2.5 μl cpd to A1. This gives 2.5 mM {50×} stock cpd-assuming cpds 20 mM. • 4) Repeat for wells A2 to A10. Control in columns 11 and 12. • 5) Transfer 5 μl from row A to row B—not column 12. Mix well. • 6) Transfer 5 μl from row B to row C. […] In column 11 {provides standard curve} only add compound B11-H11. Add 2 μl of 100 mM standard cpd to wells B12-H12 {is positive control} • 13) The Z′ factor is calculated from zero controls and positive wells. It typically gives a value of 0.7-0.9.
The compounds tested in the above assay were assigned to one of two activity ranges, namely A=<10 μM; B=>10 μM, and those assignments are reported above.

T1 sequence (P08238 whole entry): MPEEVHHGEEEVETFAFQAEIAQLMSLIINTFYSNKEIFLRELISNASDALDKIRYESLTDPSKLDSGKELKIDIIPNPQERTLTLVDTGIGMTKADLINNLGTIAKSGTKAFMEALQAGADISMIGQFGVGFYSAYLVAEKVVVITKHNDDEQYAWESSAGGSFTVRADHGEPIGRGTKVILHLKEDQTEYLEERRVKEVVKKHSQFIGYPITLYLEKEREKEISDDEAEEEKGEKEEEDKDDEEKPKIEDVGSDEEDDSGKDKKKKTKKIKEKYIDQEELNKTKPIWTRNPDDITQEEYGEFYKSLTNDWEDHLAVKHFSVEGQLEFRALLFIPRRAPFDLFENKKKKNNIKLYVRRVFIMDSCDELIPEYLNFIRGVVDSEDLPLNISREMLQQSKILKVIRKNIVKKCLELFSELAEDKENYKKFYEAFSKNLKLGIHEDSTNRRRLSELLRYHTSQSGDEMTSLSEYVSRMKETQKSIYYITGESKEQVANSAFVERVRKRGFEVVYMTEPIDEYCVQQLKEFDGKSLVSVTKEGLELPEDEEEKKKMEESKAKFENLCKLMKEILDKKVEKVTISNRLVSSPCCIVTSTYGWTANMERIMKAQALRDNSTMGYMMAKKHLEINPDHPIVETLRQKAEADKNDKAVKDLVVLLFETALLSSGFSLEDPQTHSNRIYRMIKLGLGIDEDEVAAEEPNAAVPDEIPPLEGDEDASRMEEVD

IC50 | SMILES
< 10 µM | CONC(=O)c1cc2c(-c3ccc(Cl)cc3Cl)nc(N)nc2s1 [Example 14]
< 10 µM | CCONC(=O)c1cc2c(-c3ccc(Cl)cc3Cl)nc(N)nc2s1 [Example 15]
< 10 µM | CNNC(=O)c1cc2c(-c3ccc(Cl)cc3Cl)nc(N)nc2s1 [Example 16]
< 10 µM | CCCNC(=O)c1ccc(C)c(-c2nc(N)nc3sc(C(=O)NOC)cc23)c1 [Example 17]

Same assay, conditions: activity range stated in each example; read-out: activity in the fluorescence polarization assay

IC50 | SMILES
< 10 µM | Nc1nc(-c2ccc(Cl)cc2Cl)c2cc(C(=O)O)sc2n1 [Example 1, 2-Amino-4-(2,4-dichloro-phenyl)-thieno[2,3-d]pyrimidine-6-carboxylic acid]
> 10 µM | Cc1ccc(-c2nc(N)nc3sc(C(=O)O)cc23)c(C)c1 [Example 2, 2-Amino-4-(2,4-dimethyl-phenyl)-thieno[2,3-d]pyrimidine-6-carboxylic acid]
> 10 µM | CC(C)(O)c1cc2c(-c3ccc(Cl)cc3Cl)nc(N)nc2s1 [Example 3, 2-[2-Amino-4-(2,4-dichloro-phenyl)-thieno[2,3-d]pyrimidin-6-yl]-propan-2-ol]
< 10 µM | CCC(O)(CC)c1cc2c(-c3ccc(Cl)cc3Cl)nc(N)nc2s1 [Example 4, 3-[2-Amino-4-(2,4-dichloro-phenyl)-thieno[2,3-d]pyrimidin-6-yl]-pentan-3-ol]
> 10 µM | Nc1nc(-c2ccc(Cl)cc2Cl)c2cc(C(O)(c3ccccc3)c3ccccc3)sc2n1 [Example 5, [2-Amino-4-(2,4-dichloro-phenyl)-thieno[2,3-d]pyrimidin-6-yl]-diphenyl-methanol]
< 10 µM | Nc1nc(-c2ccc(Cl)cc2Cl)c2cc(CO)sc2n1 [Example 6, [2-Amino-4-(2,4-dichloro-phenyl)-thieno[2,3-d]pyrimidin-6-yl]methanol]
< 10 µM | Cc1ccc(-c2nc(N)nc3sc(C#N)cc23)c(C)c1 [Example 7, 2-Amino-4-(2,4-dimethylphenyl)-thieno[2,3-d]pyrimidine-6-carbonitrile]
< 10 µM | CCC(=O)c1cc2c(-c3ccc(Cl)cc3Cl)nc(N)nc2s1 [Example 8, 1-[2-Amino-4-(2,4-dichloro-phenyl)-thieno[2,3-d]pyrimidine-6-yl]-propan-1-one]
< 10 µM | Nc1nc(-c2ccc(Cl)cc2Cl)c2cc(C(=O)c3ccccc3)sc2n1 [Example 9, [2-Amino-4-(2,4-dichloro-phenyl)-thieno[2,3-d]pyrimidine-6-yl]-phenyl-methanone]
< 10 µM | Cc1ccc(-c2nc(N)nc3sc(C4=NCCN4)cc23)c(C)c1 [Example 11, 6-(4,5-Dihydro-1H-imidazol-2-yl)-4-(2,4-dimethyl-phenyl)-thieno[2,3-d]pyrimidin-2-ylamine]
< 10 µM | CN1CCN(NC(=O)c2cc3c(-c4ccc(Cl)cc4Cl)nc(N)nc3s2)CC1 [Example 12, 2-Amino-4-(2,4-dichloro-phenyl)-thieno[2,3-d]pyrimidine-6-carboxylic acid (4-methyl-piperazin-1-yl) amide]
< 10 µM | Nc1nc(-c2ccc(Cl)cc2Cl)c2cc(C(=O)Nn3cnnc3)sc2n1 [Example 13, 2-Amino-4-(2,4-dichloro-phenyl)-thieno[2,3-d]pyrimidine-6-carboxylic acid [1,2,4]triazol-4-ylamide]
< 10 µM | CCCNCc1cc2c(-c3ccc(C)cc3C)nc(N)nc2s1 [Example 18, 4-(2,4-dimethyl-phenyl)-6-propylaminomethyl-thieno[2,3-d]pyrimidin-2-ylamine]
< 10 µM | Cc1cc(-c2cc3c(-c4ccc(Cl)cc4Cl)nc(N)nc3s2)[nH]n1 [Example 19, 4-(2,4-Dichloro-phenyl)-6-(5-methyl-2H-pyrazol-3-yl)-thieno[2,3-d]pyrimidin-2-ylamine]
< 10 µM | Cc1cn[nH]c1-c1cc2c(-c3ccc(Cl)cc3Cl)nc(N)nc2s1 [Example 20, 4-(2,4-Dichloro-phenyl)-6-(4-methyl-2H-pyrazol-3-yl)-thieno[2,3-d]pyrimidin-2-ylamine]
< 10 µM | Nc1nc(-c2ccc(Cl)cc2Cl)c2cc(-c3ccc[nH]3)sc2n1 [Example 21, 4-(2,4-Dichloro-phenyl)-6-(1H-pyrrol-2-yl)-thieno[2,3-d]pyrimidin-2-ylamine]
< 10 µM | CC(=O)Nc1nc(C)c(-c2cc3c(-c4ccc(Cl)cc4Cl)nc(N)nc3s2)[nH]1 [Example 22, N-{5-[2-Amino-4-(2,4-dichloro-phenyl)-thieno[2,3-d]pyrimidin-6-yl]-4-methyl-1H-imidazol-2-yl}-acetamide]
< 10 µM | Nc1nc(-c2ccc(Cl)cc2Cl)c2cc(-c3cnc[nH]3)sc2n1 [Example 24, 4-(2,4-Dichloro-phenyl)-6-(3H-imidazol-4-yl)-thieno[2,3-d]pyrimidin-2-ylamine]
< 10 µM | NCc1cc2c(-c3ccc(Cl)cc3Cl)nc(N)nc2s1 [Example 25, 6-Aminomethyl-4-(2,4-dichloro-phenyl)-thieno[2,3-d]pyrimidin-2-ylamine]
< 10 µM | CC(=O)NCc1cc2c(-c3ccc(Cl)cc3Cl)nc(N)nc2s1 [Example 26, N-[2-Amino-4-(2,4-dichloro-phenyl)-thieno[2,3-d]pyrimidin-6-ylmethyl]-acetamide]
< 10 µM | Cc1ccc(-c2nc(N)nc3sccc23)c(C)c1 [Example 27, 4-(2,4-Dimethyl-phenyl)-thieno[2,3-d]pyrimidine-2-ylamine]
< 10 µM | N#Cc1cc2c(-c3cc(OCc4ccccc4)c(Cl)cc3Cl)nc(N)nc2s1 [Example 28, 2-amino-4-(5-benzyloxy-2,4-dichloro-phenyl)-thieno[2,3-d]pyrimidine-6-carbonitrile]
< 10 µM | CCN(CC)CCOc1cc(-c2nc(N)nc3sc(C#N)cc23)c(Cl)cc1Cl [Example 29, 2-Amino-4-[2,4-dichloro-5-(diethylamino-ethoxy)-phenyl]-thieno[2,3-d]pyrimidine-6-carbonitrile]
< 10 µM | CCN(CC)CCOc1cc(-c2nc(N)nc3sc(/C(N)=N/O)cc23)c(Cl)cc1Cl [Example 30, 2-Amino-4-[2,4-dichloro-5-(2-diethylamino-ethoxy)-phenyl]-N-hydroxy-thieno[2,3-d]pyrimidine-6-carboxamidine]
< 10 µM | CCN(CC)CCOc1cc(-c2nc(N)nc3sc(C4=NCCN4)cc23)c(Cl)cc1Cl [Example 31, 4-[2,4-dichloro-5-(2-diethylamino-ethoxy)-phenyl]-6-(4,5-dihydro-1H-imidazol-2-yl)-thieno[2,3-d]pyrimidin-2-ylamine]
< 10 µM | CCN(CC)CCOc1cc(-c2nc(N)nc3sc(CO)cc23)c(Cl)cc1Cl [Example 32, {2-amino-4-[2,4-dichloro-5-(2-diethylamino-ethoxy)-phenyl]-thieno[2,3-d]pyrimidin-6-yl}-methanol]
< 10 µM | CCN(CC)CCOc1cc(-c2nc(N)nc3sc(C=O)cc23)c(Cl)cc1Cl [Example 33, 2-amino-4-[2,4-dicholoro-5-(2-diethylamino-ethoxy)-phenyl]thieno[2,3-d]pyrimidine-6-carbaldehyde]
< 10 µM | CCN(CC)CCOc1cc(-c2nc(N)nc3sc(/C=C/C(C)=O)cc23)c(Cl)cc1Cl [Example 34, 4-{2-Amino-4-[2,4-dicholoro-5-(2-diethylamino-ethoxy)-phenyl]thieno[2,3-d]pyrimidine-6-yl}-but-3-en-2-one]
